Data taken from patent publication US7238694B2, “Rifamycin imino derivatives effective against drug-resistant microbes” (Cumbre Pharmaceuticals, Inc., priority 2004, dated 2007).
Converted amounts (≈) assume the structure as drawn.

What was measured:
Type in all cases: cell-based
[1] = tested on: Staphylococcus aureus ATCC29213; experiment: MIC, microbroth dilution (NCCLS); settings: rifS strain, Cation-Adjusted Mueller-Hinton Broth, 37° C., read-out: MIC
[2] = tested on: Haemophilus influenzae ATCC10211; experiment: MIC, microbroth dilution (NCCLS); settings: rifS strain, BHI Broth with NAD and hematin, 37° C., read-out: MIC
[3] = tested on: Staphylococcus epidermidis ATCC12228; experiment: MIC, microbroth dilution (NCCLS); settings: rifS strain, Cation-Adjusted Mueller-Hinton Broth, 37° C., read-out: MIC
[4] = tested on: Staphylococcus aureus ATCC29213 rpoB^H418Y; experiment: microbe, parasite or virus in culture; settings: Staphylococcus aureus, ATCC29213; rifR strain; Cation-Adjusted Mueller-Hinton Broth, 37° C.; read-out: MIC
[5] = tested on: Staphylococcus aureus MT1222 gyrA^A116E grlB^S80F; experiment: microbe, parasite or virus in culture; settings: cipR strain, Cation-Adjusted Mueller-Hinton Broth, 37° C., read-out: MIC
[6] = tested on: Streptococcus pneumoniae ATCC6303; experiment: MIC, microbroth dilution (NCCLS); settings: rifS strain, THY Broth with 1 mg/mL catalase, 5% CO2, 37° C., read-out: MIC
[7] = tested on: Streptococcus pyogenes ATCC19615; experiment: MIC, microbroth dilution (NCCLS); settings: rifS strain, THY Broth, 37° C., read-out: MIC

| SMILES | MIC [1] [µg/mL] | MIC [2] [µg/mL] | MIC [3] [µg/mL] | MIC [4] [µg/mL] | MIC [5] [µg/mL] | MIC [6] [µg/mL] | MIC [7] [µg/mL] |
| --- | --- | --- | --- | --- | --- | --- | --- |
| COc1c(N2CCCC(N/N=C/c3c4c(O)c5c(O)c(C)c6c(c5c3O)C(=O)[C@@](C)(O/C=C/[C@H](OC)[C@@H](C)[C@@H](OC(C)=O)[C@H](C)[C@H](O)[C@H](C)[C@@H](O)[C@@H](C)/C=C/C=C(/C)C(=O)N4)O6)C2)c(F)cc2c(=O)c(C(=O)O)cn(C3CC3)c12 (mixture of isomers) [Example 24, (R/S)-3-[1-(3-Carboxy-1-cyclopropyl-6-fluoro-8-methoxy-4-oxo-1,4-dihydroquinolin-7-yl)-piperidin-3-hydrazino-methylenyl]-rifamycin SV] | 0.008 to 1 (≈ 0.00728 to 0.911 µM) | 0.125 to 4 (≈ 0.114 to 3.64 µM) | 0.008 to 0.1 (≈ 0.00728 to 0.0911 µM) | 0.06 to 16 (≈ 0.0546 to 14.6 µM) | 0.008 to 0.125 (≈ 0.00728 to 0.114 µM) | 0.008 to 0.06 (≈ 0.00728 to 0.0546 µM) | 0.008 to 0.03 (≈ 0.00728 to 0.0273 µM) |
| COc1c(N2CCC(NC3CCN(/N=C/c4c5c(O)c6c(O)c(C)c7c(c6c4O)C(=O)[C@@](C)(O/C=C/[C@H](OC)[C@@H](C)[C@@H](OC(C)=O)[C@H](C)[C@H](O)[C@H](C)[C@@H](O)[C@@H](C)/C=C/C=C(/C)C(=O)N5)O7)CC3)C2)c(F)cc2c(=O)c(C(=O)O)cn(C3CC3)c12 (mixture of isomers) [Example 26, (R/S)-3-{4-[1-(3-Carboxy-1-cyclopropyl-6-fluoro-8-methoxy-4-oxo-1,4-dihydroquinolin-7-yl)-pyrrolidin-3-ylamino]-piperidin-1-yl-aminomethylenyl}-rifamycin SV] | 0.008 to 1 (≈ 0.00685 to 0.857 µM) | 0.125 to 4 (≈ 0.107 to 3.43 µM) | 0.008 to 0.1 (≈ 0.00685 to 0.0857 µM) | 0.06 to 16 (≈ 0.0514 to 13.7 µM) | 0.008 to 0.125 (≈ 0.00685 to 0.107 µM) | 0.008 to 0.06 (≈ 0.00685 to 0.0514 µM) | 0.008 to 0.03 (≈ 0.00685 to 0.0257 µM) |
| COc1c(N2CCN(C3CCN(/N=C/c4c5c(O)c6c(O)c(C)c7c(c6c4O)C(=O)[C@@](C)(O/C=C/[C@H](OC)[C@@H](C)[C@@H](OC(C)=O)[C@H](C)[C@H](O)[C@H](C)[C@@H](O)[C@@H](C)/C=C/C=C(/C)C(=O)N5)O7)C3)CC2)c(F)cc2c(=O)c(C(=O)O)cn(C3CC3)c12 (mixture of isomers) [Example 28, (R/S)-3-{3-[1-(3-carboxy-1-cyclopropyl-6-fluoro-8-methoxy-4-oxo-1,4-dihydroquinolin-7-yl)-piperazin-4-yl]-pyrrolidinyl-1-hydrazino-methylenyl}-rifamycin SV] | 0.008 to 1 (≈ 0.00694 to 0.867 µM) | 0.125 to 4 (≈ 0.108 to 3.47 µM) | 0.008 to 0.1 (≈ 0.00694 to 0.0867 µM) | 0.06 to 16 (≈ 0.052 to 13.9 µM) | 0.008 to 0.125 (≈ 0.00694 to 0.108 µM) | 0.008 to 0.06 (≈ 0.00694 to 0.052 µM) | 0.008 to 0.03 (≈ 0.00694 to 0.026 µM) |
| COc1c(N2CCC(N(Cc3ccccn3)/N=C/c3c4c(O)c5c(O)c(C)c6c(c5c3O)C(=O)[C@@](C)(O/C=C/[C@H](OC)[C@@H](C)[C@@H](OC(C)=O)[C@H](C)[C@H](O)[C@H](C)[C@@H](O)[C@@H](C)/C=C/C=C(/C)C(=O)N4)O6)C2)c(F)cc2c(=O)c(C(=O)O)cn(C3CC3)c12 (mixture of isomers) [Example 30, (R/S)-3-[1-(3-carboxy-1-cyclopropyl-6-fluoro-8-methoxy-4-oxo-1,4-dihydroquinolin-7-yl)-pyrrolidinyl-3-(pyridin-2-ylmethyl)hydrazino-methylenyl]-rifamycin SV] | 0.008 to 1 (≈ 0.00681 to 0.851 µM) | 0.125 to 4 (≈ 0.106 to 3.4 µM) | 0.008 to 0.1 (≈ 0.00681 to 0.0851 µM) | 0.06 to 16 (≈ 0.0511 to 13.6 µM) | 0.008 to 0.125 (≈ 0.00681 to 0.106 µM) | 0.008 to 0.06 (≈ 0.00681 to 0.0511 µM) | 0.008 to 0.03 (≈ 0.00681 to 0.0255 µM) |
| CO[C@H]1/C=C/O[C@@]2(C)Oc3c(C)c(O)c4c(O)c(c(/C=N/N5CCC(C(=O)NC6CCN(c7c(F)cc8c(=O)c(C(=O)O)cn(C9CC9)c8c7Cl)C6)CC5)c(O)c4c3C2=O)NC(=O)/C(C)=C\C=C\[C@H](C)[C@H](O)[C@@H](C)[C@@H](O)[C@@H](C)[C@H](OC(C)=O)[C@@H]1C (mixture of isomers) [Example 31, (R/S)-3-{4-[1-(3-Carboxy-8-chloro-1-cyclopropyl-6-fluoro-4-oxo-1,4-dihydroquinolin-7-yl)-pyrrolidin-3-ylcarbamoyl]-piperidin-1-yl-aminomethylenyl}-rifamycin SV] | 0.008 to 1 (≈ 0.00667 to 0.834 µM) | 0.125 to 4 (≈ 0.104 to 3.33 µM) | 0.008 to 0.1 (≈ 0.00667 to 0.0834 µM) | 0.06 to 16 (≈ 0.05 to 13.3 µM) | 0.008 to 0.125 (≈ 0.00667 to 0.104 µM) | 0.008 to 0.06 (≈ 0.00667 to 0.05 µM) | 0.008 to 0.03 (≈ 0.00667 to 0.025 µM) |
| COc1c(N2CCC(N3CCN(/N=C/c4c5c(O)c6c(O)c(C)c7c(c6c4O)C(=O)[C@@](C)(O/C=C/[C@H](OC)[C@@H](C)[C@@H](OC(C)=O)[C@H](C)[C@H](O)[C@H](C)[C@@H](O)[C@@H](C)/C=C/C=C(/C)C(=O)N5)O7)CC3)C2)c(F)cc2c(=O)c(C(=O)O)cn(C3CC3)c12 (mixture of isomers) [Example 33, (R/S)-3-{4-[1-(3-Carboxy-1-cyclopropyl-6-fluoro-8-methoxyoxo-1,4-dihydroquinolin-7-yl)-pyrrolidin-3-yl]-piperazin-1-yl-aminomethylenyl}-rifamycin SV] | 0.008 to 1 (≈ 0.00694 to 0.867 µM) | 0.125 to 4 (≈ 0.108 to 3.47 µM) | 0.008 to 0.1 (≈ 0.00694 to 0.0867 µM) | 0.06 to 16 (≈ 0.052 to 13.9 µM) | 0.008 to 0.125 (≈ 0.00694 to 0.108 µM) | 0.008 to 0.06 (≈ 0.00694 to 0.052 µM) | 0.008 to 0.03 (≈ 0.00694 to 0.026 µM) |
| CO[C@H]1/C=C/O[C@@]2(C)Oc3c(C)c(O)c4c(O)c(c(/C=N/N5CCN(C6CCN(c7nc8c(cc7F)c(=O)c(C(=O)O)cn8-c7ccc(F)cc7F)C6)CC5)c(O)c4c3C2=O)NC(=O)/C(C)=C\C=C\[C@H](C)[C@H](O)[C@@H](C)[C@@H](O)[C@@H](C)[C@H](OC(C)=O)[C@@H]1C (mixture of isomers) [Example 34] | 0.008 to 1 (≈ 0.00669 to 0.836 µM) | 0.125 to 4 (≈ 0.104 to 3.34 µM) | 0.008 to 0.1 (≈ 0.00669 to 0.0836 µM) | 0.06 to 16 (≈ 0.0502 to 13.4 µM) | 0.008 to 0.125 (≈ 0.00669 to 0.104 µM) | 0.008 to 0.06 (≈ 0.00669 to 0.0502 µM) | 0.008 to 0.03 (≈ 0.00669 to 0.0251 µM) |
| CO[C@H]1/C=C/O[C@@]2(C)Oc3c(C)c(O)c4c(O)c(c(/C=N/N5CCN(C(=O)C6CCN(c7nc8c(cc7F)c(=O)c(C(=O)O)cn8-c7ccc(F)cc7F)C6)CC5)c(O)c4c3C2=O)NC(=O)/C(C)=C\C=C\[C@H](C)[C@H](O)[C@@H](C)[C@@H](O)[C@@H](C)[C@H](OC(C)=O)[C@@H]1C (mixture of isomers) [Example 36, (R/S)-3-{4-[1-(3-Carboxy-1-(2,4-difluoro-phenyl)-6-fluoro-4-oxo-1,4-dihydro-[1,8]naphthyridine-7-yl)-pyrrolidin-3-yl-carbonyl]-piperazin-1-yl-aminomethylenyl}-rifamycin SV] | 0.008 to 1 (≈ 0.00653 to 0.817 µM) | 0.125 to 4 (≈ 0.102 to 3.27 µM) | 0.008 to 0.1 (≈ 0.00653 to 0.0817 µM) | 0.06 to 16 (≈ 0.049 to 13.1 µM) | 0.008 to 0.125 (≈ 0.00653 to 0.102 µM) | 0.008 to 0.06 (≈ 0.00653 to 0.049 µM) | 0.008 to 0.03 (≈ 0.00653 to 0.0245 µM) |
| COc1c(N2CCC(C3(N4CCN(/N=C/c5c6c(O)c7c(O)c(C)c8c(c7c5O)C(=O)[C@@](C)(O/C=C/[C@H](OC)[C@@H](C)[C@@H](OC(C)=O)[C@H](C)[C@H](O)[C@H](C)[C@@H](O)[C@@H](C)/C=C/C=C(/C)C(=O)N6)O8)CC4)CC3)C2)c(F)cc2c(=O)c(C(=O)O)cn(C3CC3)c12 (mixture of isomers) [Example 37, (R/S)-3-{4-[1-(3-Carboxy-1-cyclopropyl-6-fluoro-8-methoxy-4-oxo-1,4-dihydroquinoline-7-yl)-pyrrolidin-3-yl-cyclopropyl]-piperazin-1-yl-aminomethylenyl}-rifamycin SV] | 0.008 to 1 (≈ 0.0067 to 0.838 µM) | 0.125 to 4 (≈ 0.105 to 3.35 µM) | 0.008 to 0.1 (≈ 0.0067 to 0.0838 µM) | 0.06 to 16 (≈ 0.0503 to 13.4 µM) | 0.008 to 0.125 (≈ 0.0067 to 0.105 µM) | 0.008 to 0.06 (≈ 0.0067 to 0.0503 µM) | 0.008 to 0.03 (≈ 0.0067 to 0.0251 µM) |
| CO[C@H]1/C=C/O[C@@]2(C)Oc3c(C)c(O)c4c(O)c(c(/C=N/NCC5CCN(c6c(F)cc7c(=O)c(C(=O)O)cn(C8CC8)c7c6Cl)C5)c(O)c4c3C2=O)NC(=O)/C(C)=C\C=C\[C@H](C)[C@H](O)[C@@H](C)[C@@H](O)[C@@H](C)[C@H](OC(C)=O)[C@@H]1C (mixture of isomers) [Example 39, (R/S)-3-[1-(3-Carboxy-8-chloro-1-cyclopropyl-6-fluoro-4-oxo-1,4-dihydroquinolin-7-yl)-pyrrolidin-3-yl-methyl-hydrazino-methylenyl]-rifamycin SV] | 0.008 to 1 (≈ 0.00726 to 0.907 µM) | 0.125 to 4 (≈ 0.113 to 3.63 µM) | 0.008 to 0.1 (≈ 0.00726 to 0.0907 µM) | 0.06 to 16 (≈ 0.0544 to 14.5 µM) | 0.008 to 0.125 (≈ 0.00726 to 0.113 µM) | 0.008 to 0.06 (≈ 0.00726 to 0.0544 µM) | 0.008 to 0.03 (≈ 0.00726 to 0.0272 µM) |
